Assay results as given in PubChem BioAssay (NCI).
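In this assay, cells in 96-well plates receive the compound at five concentrations for 48 hours. Endpoints are linearly interpolated between the surrounding concentrations. TGI: total growth inhibition.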

What was measured:
Assay in all cases: NCI anticancer screen, dose series, 48 h
OVCAR-5 ovarian = tested on: OVCAR-5 ovarian
KM12 colon = tested on: KM12 colon
CCRF-CEM leukemia = tested on: CCRF-CEM leukemia
DU-145 prostate = tested on: DU-145 prostate
MOLT-4 leukemia = tested on: MOLT-4 leukemia
A549 NSCLC = tested on: A549 NSCLC
HT29 colon = tested on: HT29 colon
SNB-75 CNS = tested on: SNB-75 CNS
ACHN renal = tested on: ACHN renal
HOP-92 NSCLC = tested on: HOP-92 NSCLC
BT-549 breast = tested on: BT-549 breast
NCI-H23 lung = tested on: NCI-H23 lung
HS 578T breast = tested on: HS 578T breast
MDA-MB-435 = tested on: MDA-MB-435
MDA-N = tested on: MDA-N
U251 CNS = tested on: U251 CNS
RPMI-8226 leukemia = tested on: RPMI-8226 leukemia
LOX IMVI melanoma = tested on: LOX IMVI melanoma
SNB-19 CNS = tested on: SNB-19 CNS
IGROV1 ovarian = tested on: IGROV1 ovarian
EKVX NSCLC = tested on: EKVX NSCLC
OVCAR-3 ovarian = tested on: OVCAR-3 ovarian
SF-295 CNS = tested on: SF-295 CNS
PC-3 prostate = tested on: PC-3 prostate
UACC-257 melanoma = tested on: UACC-257 melanoma
SF-539 CNS = tested on: SF-539 CNS
SF-268 CNS = tested on: SF-268 CNS
OVCAR-8 ovarian = tested on: OVCAR-8 ovarian
HOP-62 NSCLC = tested on: HOP-62 NSCLC
SR leukemia = tested on: SR leukemia
786-0 renal = tested on: 786-0 renal
K-562 leukemia = tested on: K-562 leukemia
HCC-2998 colon = tested on: HCC-2998 colon
COLO 205 colon = tested on: COLO 205 colon
MALME-3M melanoma = tested on: MALME-3M melanoma
T-47D breast = tested on: T-47D breast
NCI-H460 lung = tested on: NCI-H460 lung
TK-10 renal = tested on: TK-10 renal
SK-MEL-28 melanoma = tested on: SK-MEL-28 melanoma
HCT-15 colon = tested on: HCT-15 colon
RXF 393 renal = tested on: RXF 393 renal
SK-MEL-5 melanoma = tested on: SK-MEL-5 melanoma
HL-60(TB) leukemia = tested on: HL-60(TB) leukemia
SW-620 colon = tested on: SW-620 colon
UO-31 renal = tested on: UO-31 renal
HCT-116 colon = tested on: HCT-116 colon
MDA-MB-231 breast = tested on: MDA-MB-231 breast
SN12C renal = tested on: SN12C renal
A498 renal = tested on: A498 renal
M14 melanoma = tested on: M14 melanoma
NCI-H226 lung = tested on: NCI-H226 lung
MCF7 breast = tested on: MCF7 breast
OVCAR-4 ovarian = tested on: OVCAR-4 ovarian
NCI/ADR-RES ovarian = tested on: NCI/ADR-RES ovarian

Measured: TGI

Cc1cc(C)cc(Nc2cc(=O)[nH]c(=O)[nH]2)c1
> 100 µM: all assays above
